In brackets after ≈: the same amount, converted by molar mass.
Experiments:
Fungi stains = assay: Minimum fungicidal concentration (MFC), positive control, strain not stated; format: cell-based
Protocol: Minimum fungicidal concentration (MFC) was determined according to Zinsou et al., “Development of new dermatological formulations for the treatment of cutaneous candidiasis”, Scientific African (2020), 8:e00342. Different final concentrations (0.1 to 1 mg/mL) of the bark essential oils were dissolved in DEMO and added to liquid Sabouraud dextrose broth. From the above fungal stain suspension, 1 mL was added to each essential oil tube. The tubes were incubated at room temperature for three days. Negative and positive controls were made through the addition of an equivalent amount of DMSO and Ketoconazole, respectively. MFC was calculated through the determination of the lowest concentration of the essential oil, which could inhibit the growth of the fungus. Every concentration was repeated 5 times in three different experiments, and the mean and SD of inhibition zones were calculated for each fungal strain. The MIC was determined as the lowest concentration of essential oil that inhibited fungal growth after 48 h.

C. albicans = assay: In vivo topical fungal infection of burn wounds in Wistar rats; settings: for percentage of fungicidal activity (wound fungal load): FIG. 5
Protocol: The development of in vivo topical fungal infection was determined according to Zinsou, A. et al., “Development of new dermatological formulations for the treatment of cutaneous candidiasis”, Scientific African (2020):8:e00342, and modified Ray and Wuepper, “Experimental Cutaneous Candidiasis in Rodents: II. Role of the Stratum Corneum Barrier and Serum Complement as a Mediator of a Protective Inflammatory Response”, Archives of Dermatology (1978), Vol. 114(4): 539-43. The experimental protocol was permitted by the Institutional Animal Care and Use Committee of King Faisal University (KFU-REC-2023-JAN-EA000691). All the experiments were executed in harmony with the relevant procedures and regulations of the Ethical Conduct for the Use of Animals in Research at King Faisal University. Wistar rats weighing (220±30 g) were used for the whole experiment. The animals' backs were shaved after anesthesia, and sterilized with 70% ethyl alcohol in water and left to dry. The injury was induced on the shaven back of each rat using a hot copper metal rod. The injury was swabbed with 0.5 mL broth containing […] Colony-Forming Units (CFU) of C. albicans. The essential oil topical preparations were applied once daily, starting from day 3, directly on the infected wound until the wound was completely healed (nearly 20 days). No antibiotic or antifungal preparations were administered to any of the animal groups, and the animals were monitored daily for any wound contamination. The animals' wounds were covered by sterile wound plaster, which is changed every day. […]
The animals' infected wounds (lesions) were monitored according to Masoko, et al., “In vivo antifungal effect of Combretum and Terminalia species extracts on cutaneous wound healing in immunosuppressed rats”, Pharm Biol (2010): 48:6:621-32, and Sullivan, et al., “Assessment of wound bioburden development in a rat acute wound model: Quantitative swab versus tissue biopsy”, Wounds (2004): 16: 115-123, using the following parameters: (1) Presence and type of exudate, erythema, swelling, ulceration, and crust formation: The scoring of the lesions regarding the exudate was measured using the following criteria: 0: No exudate, 1: Exudate just visible, 2: Exudate easily visible, 3: Substantial quantity of exudate, 4: Large quantity of exudate; (2) Wound contraction percentage: The lesion diameters were determined in millimeters (mm) vertically and horizontally. The lesion size percentage was calculated using the below equation: Wound contraction percentage=((Wound area day 0-Wound area day X)/Wound area day 0)×100, where X represents the number of days;
(3) Epithelialization time: The number of days needed for the wound Escher to fade away, leaving no visible wound, was used to determine the epithelialization period. (4) Evaluation of wound fungal load was determined according to Sullivan et al., supra: At the 3rd, 10th, and 15 days, each lesion was gently swabbed by a sterile swab 3 times anticlockwise with mild pressure. […] The plates were incubated for 48 hours at 37° C., and the number of yeasts on each plate was manually counted. […]

CC(=O)N1CCN(c2ccc(OCC3COC(Cn4ccnc4)(c4ccc(Cl)cc4Cl)O3)cc2)CC1 (stereo not drawn) [Ketoconazole]
MFC (Fungi stains): 0.037 µg/mL (≈ 0.0696 µM)
reduction of wound exudate related to the non-treatment lesions (C. albicans; AUC of exudate score, FIG. 2B, topical once daily from day 3): 58%
reduction of epithelization time related to the untreated infected wound (C. albicans; FIG. 4): 42%
wound contraction percentage (C. albicans; by day 21, FIG. 3): 100%
percentage of fungicidal activity (wound fungal load) (C. albicans; day 5, related to the untreated-infected wound): 45.85%
percentage of fungicidal activity (wound fungal load) (C. albicans; day 15, related to the untreated-infected wound): 98.58%

— patent US11883450B1, “Extract of Agathis robusta as antifungal agent” (KING FAISAL UNIVERSITY, priority 2023, dated 2024)
